The conditions of data set [1]: cited from earlier work.
The target in data set [2] is T1, α-glucosidase (Saccharomyces cerevisiae) (Saccharomyces cerevisiae, UniProt P53341).
T1 construct: purchased
As to the kind of experiment: α-Glucosidase inhibition (p-nitrophenyl glycoside substrate). It is filed as biochemical. On the procedure: (§1) For both families of enzymes used herein (glycosidases and cholinesterases), stock solutions of the inhibitors were prepared in DMSO; DMSO content was kept at 5% (V/V) for glycosidases and 1.25% (V/V) for cholinesterases. Enzymes were properly dissolved in water in a concentration in which the rate of the reaction when using [S] = 4 × KM is in the range 0.12–0.15 Abs/min. In both kinds of enzymes, an initial screening at 100 µM inhibitor concentration was performed, using the following substrate concentrations: [S] = 0.25 mM for α-glucosidase (Saccharomyces cerevisiae), 4.0 mM for β-glucosidase (almonds), 0.60 mM for α-galactosidase (green coffee beans), 0.51 mM for β-galactosidase (Escherichia coli), 1.5 mM for β-galactosidase (Aspergillus Oryzae), 0.12 mM for AChE (Electrophorus electricus), 0.11 mM for BuChE (equine serum). […] Each assay was run in duplicate.
(§2) Glycosidase assays were accomplished using the methodology reported by Bols and co-workers[30]. Each set of experiments is prepared in PS cuvettes using 0.1 M phosphate buffer (pH 6.8) and the corresponding o- or p-nitrophenyl glycopyranosides as substrates. Reactions were monitored at 25 °C by following the formation of the corresponding nitrophenolates at 400 nm (glucosidases and α-galactosidase) or 420 nm (β-galactosidases) over a time of 125 s.
(Dixon plot) and [S]/v vs. [I]. For the calculation of kinetic parameters (KM, Vmax) a nonlinear regression analysis (least squares fit, GraphPad Prism 8.01) was used. Data are expressed as the mean ± SD.
(§3) Assessment of the inhibitory capacity against glycosidases was accomplished using the methodology reported by Bols and co-workers[30]. p-Nitrophenyl glycosides (o- for β-galactosidases) were used as model substrates, and the release of the corresponding p-nitrophenolates at pH 6.8 was monitored spectrophotometrically (λmax = 400 or 420 nm for p- or o-nitrophenolates, respectively).

The next data set deals with β-glucosidase (almonds). As to the kind of experiment: β-Glucosidase inhibition (p-nitrophenyl glycoside substrate). It is filed as biochemical. Particulars: for Mode of inhibition β-Glucosidase: Cornish–Bowden method; for IC50: almond enzyme, pH 6.8, 25 °C; for Ki: binding to free enzyme, read-out: Kia β-Glucosidase. On the procedure: as §1, §2
(§4) For strong inhibitors, the mode of inhibition was determined using the Cornish–Bowden method, which involves the use of two different plots: 1/v vs. [I] (Dixon plot) and [S]/v vs. [I]. For the calculation of kinetic parameters (KM, Vmax) a nonlinear regression analysis (least squares fit, GraphPad Prism 8.01) was used. Data are expressed as the mean ± SD.
as §3

Data set [3] addresses T2, α-galactosidase (green coffee beans) (Coffea arabica, UniProt Q42656).
T2 construct: purchased; host or cells: green coffee beans
As to the kind of experiment: α-Galactosidase inhibition. It is filed as biochemical. On the procedure:
as §1, with “Enzymes” for “For both families of enzymes used herein (glycosidases and cholinesterases), stock solutions of the inhibitors were prepared in DMSO; DMSO content was kept at 5% (V/V) for glycosidases and 1.25% (V/V) for cholinesterases. Enzymes”
Glycosidase assays were accomplished using the methodology reported by Bols and co-workers[30]. Each set of experiments is prepared in PS cuvettes using 0.1 M phosphate buffer (pH 6.8) and the corresponding o- or p-nitrophenyl glycopyranosides as substrates.
as §3

The target in data set [4] is T3, β-galactosidase (Aspergillus Oryzae) (Aspergillus oryzae, UniProt Q2UCU3).
T3 construct: purchased
T3 sequence (Q2UCU3 19-1005): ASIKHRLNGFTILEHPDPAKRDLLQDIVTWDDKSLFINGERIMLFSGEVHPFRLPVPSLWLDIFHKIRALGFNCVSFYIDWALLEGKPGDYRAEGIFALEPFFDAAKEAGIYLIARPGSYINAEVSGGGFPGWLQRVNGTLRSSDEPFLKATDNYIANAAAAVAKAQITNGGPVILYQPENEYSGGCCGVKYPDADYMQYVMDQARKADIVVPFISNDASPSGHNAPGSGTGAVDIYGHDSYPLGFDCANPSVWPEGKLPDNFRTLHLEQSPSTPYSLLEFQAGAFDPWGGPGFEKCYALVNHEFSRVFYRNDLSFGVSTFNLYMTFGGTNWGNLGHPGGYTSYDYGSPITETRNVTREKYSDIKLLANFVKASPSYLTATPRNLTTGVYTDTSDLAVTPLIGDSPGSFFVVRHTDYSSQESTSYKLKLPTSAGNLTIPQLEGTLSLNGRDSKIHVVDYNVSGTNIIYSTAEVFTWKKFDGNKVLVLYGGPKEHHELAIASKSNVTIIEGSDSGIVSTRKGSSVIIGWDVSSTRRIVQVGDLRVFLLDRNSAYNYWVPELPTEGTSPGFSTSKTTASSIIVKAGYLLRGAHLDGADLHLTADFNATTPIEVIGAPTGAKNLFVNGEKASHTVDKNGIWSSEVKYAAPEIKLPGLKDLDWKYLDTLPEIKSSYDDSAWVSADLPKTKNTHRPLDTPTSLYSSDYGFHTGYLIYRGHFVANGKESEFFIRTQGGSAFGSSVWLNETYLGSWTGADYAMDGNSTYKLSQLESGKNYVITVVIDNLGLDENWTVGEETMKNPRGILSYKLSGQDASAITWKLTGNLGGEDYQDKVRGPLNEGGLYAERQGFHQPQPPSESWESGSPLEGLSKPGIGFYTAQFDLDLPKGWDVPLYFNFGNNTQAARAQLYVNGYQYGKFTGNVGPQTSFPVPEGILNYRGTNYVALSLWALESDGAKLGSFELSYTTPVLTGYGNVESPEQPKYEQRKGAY
As to the kind of experiment: β-Galactosidase (A. oryzae) inhibition. It is filed as biochemical. On the procedure: as §1, §2, §3

Data set [5] addresses T4, β-galactosidase (Escherichia coli) (Escherichia coli, UniProt P00722).
T4 construct: purchased
As to the kind of experiment: β-Galactosidase (E. coli) inhibition. It is filed as biochemical. On the procedure: as §1, §2, §3

The target of data set [6] is AChE (Electrophorus electricus) (Electrophorus electricus, UniProt O42275). As to the kind of experiment: AChE inhibition, Ellman's assay. It is filed as biochemical. Particulars: for IC50: Electrophorus electricus, pH 8.0, read-out: IC50 AChE. On the procedure: as §1
(§5) For cholinesterases, minor modifications on Ellman’s assay[31] were performed. The activity was measured in PS cuvettes containing […] (pH 8.0), 0.88 mM DTNB, and substrate (acetyl- and butyryl-thiocholine iodides for AChE and BuChE, respectively), The formation of the chromophore was monitored at 405 nm over a time of 125 s.
as §4
(§6) Derivatives 11 and 12 were tested also against AChE (Electrophorus electricus) and BuChE (equine serum), as recognised models for human cholinesterases due to their close structural resemblance. For that purpose, Ellman’s colorimetric assay was used; this is an indirect test in which acetyl and butyryl thiocholine iodides are used as model substrates, which upon interaction with the enzyme release thiocholine, which in turn reacts with the chromogen reagent 5,5′-dithiobis(2-nitrobenzoic acid (DTNB) to give 2-nitro-5-mercaptobenzoate (at pH 8.0). The monitoring of the latter at 405 nm furnishes the kinetic parameters.
(DTNB colorimetry detects thiols as they appear.)

The target of the next data set is T5, BuChE (equine serum) (Equus caballus, UniProt P81908).
T5 construct: 0.11 mM for BuChE (equine serum); from tissue; host or cells: equine serum
As to the kind of experiment: BuChE inhibition, Ellman's assay. It is filed as biochemical. Particulars: for IC50: equine serum, pH 8.0, read-out: IC50 BuChE. On the procedure:
as §1, §5, §4, §6

Data set [7] deals with BJ-hTERT human fibroblasts. As to the kind of experiment: Antiproliferative SRB assay, BJ-hTERT. It is filed as cell-based. The note with it: Fibroblast, 48 h, non-tumour fibroblasts. For orientation: The SRB assay estimates cell density from bound dye.
Procedure: We selected the human neuroblastoma cell line SH-SY5Y and the fibroblast cell line BJ-hTERT to evaluate the antiproliferative activity of the compounds. The tests were performed in 96-well plates using the SRB assay[32] with the following specifications. Cell seeding densities were 5000 cells/well for SH-SY5Y and 7000 cells/well for BJ-hTERT. Drug incubation times were 48 h. The optical density of each well was measured at 530 (primary) and 620 (secondary) nm.
To analyse the potential cytotoxicity of title compounds, their antiproliferative activity was measured.

Where two headings read alike, the source gives them in different places.

T4 sequence (P00722 2-1024 limits assumed): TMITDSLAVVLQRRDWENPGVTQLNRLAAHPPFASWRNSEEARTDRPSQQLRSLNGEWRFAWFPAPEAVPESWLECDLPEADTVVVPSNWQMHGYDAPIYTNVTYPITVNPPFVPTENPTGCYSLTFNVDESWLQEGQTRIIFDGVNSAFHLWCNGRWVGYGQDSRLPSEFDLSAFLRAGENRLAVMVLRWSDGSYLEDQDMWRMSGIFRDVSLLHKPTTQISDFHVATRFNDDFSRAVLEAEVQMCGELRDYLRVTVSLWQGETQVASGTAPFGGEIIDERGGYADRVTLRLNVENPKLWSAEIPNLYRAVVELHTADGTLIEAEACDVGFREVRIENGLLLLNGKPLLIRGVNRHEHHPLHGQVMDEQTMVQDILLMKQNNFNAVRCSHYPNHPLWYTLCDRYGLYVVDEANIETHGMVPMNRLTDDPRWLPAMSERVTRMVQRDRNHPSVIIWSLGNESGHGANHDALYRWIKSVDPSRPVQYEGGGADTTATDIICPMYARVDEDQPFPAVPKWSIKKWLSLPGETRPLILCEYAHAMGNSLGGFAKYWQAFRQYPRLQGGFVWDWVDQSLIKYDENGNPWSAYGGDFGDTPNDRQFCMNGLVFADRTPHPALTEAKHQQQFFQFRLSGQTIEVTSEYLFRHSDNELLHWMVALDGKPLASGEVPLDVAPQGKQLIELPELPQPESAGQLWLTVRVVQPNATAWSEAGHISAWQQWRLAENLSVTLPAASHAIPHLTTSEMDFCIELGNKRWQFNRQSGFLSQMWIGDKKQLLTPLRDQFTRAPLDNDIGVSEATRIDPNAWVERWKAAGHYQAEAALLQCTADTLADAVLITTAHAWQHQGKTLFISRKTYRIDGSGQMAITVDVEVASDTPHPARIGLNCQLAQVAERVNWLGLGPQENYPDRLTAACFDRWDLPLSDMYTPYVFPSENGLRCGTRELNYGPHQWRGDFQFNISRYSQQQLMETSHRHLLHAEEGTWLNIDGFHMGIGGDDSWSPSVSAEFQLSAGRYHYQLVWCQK
T5 sequence (P81908 whole entry): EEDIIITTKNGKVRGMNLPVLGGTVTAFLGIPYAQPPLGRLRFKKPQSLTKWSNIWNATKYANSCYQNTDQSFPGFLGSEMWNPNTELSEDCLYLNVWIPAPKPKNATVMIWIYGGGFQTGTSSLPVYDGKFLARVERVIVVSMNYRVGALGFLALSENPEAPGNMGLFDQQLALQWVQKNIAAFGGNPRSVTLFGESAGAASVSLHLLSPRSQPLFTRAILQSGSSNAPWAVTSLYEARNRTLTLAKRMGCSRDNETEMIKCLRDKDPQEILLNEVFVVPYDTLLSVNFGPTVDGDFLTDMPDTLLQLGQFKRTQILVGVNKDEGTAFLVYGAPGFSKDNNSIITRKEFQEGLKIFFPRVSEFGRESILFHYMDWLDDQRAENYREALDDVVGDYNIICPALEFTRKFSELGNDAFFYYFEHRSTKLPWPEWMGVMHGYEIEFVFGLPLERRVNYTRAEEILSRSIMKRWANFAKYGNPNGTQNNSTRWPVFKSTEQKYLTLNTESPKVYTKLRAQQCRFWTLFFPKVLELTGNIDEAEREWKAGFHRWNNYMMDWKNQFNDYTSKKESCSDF
AChE (Electrophorus electricus), sequence (O42275 24-633): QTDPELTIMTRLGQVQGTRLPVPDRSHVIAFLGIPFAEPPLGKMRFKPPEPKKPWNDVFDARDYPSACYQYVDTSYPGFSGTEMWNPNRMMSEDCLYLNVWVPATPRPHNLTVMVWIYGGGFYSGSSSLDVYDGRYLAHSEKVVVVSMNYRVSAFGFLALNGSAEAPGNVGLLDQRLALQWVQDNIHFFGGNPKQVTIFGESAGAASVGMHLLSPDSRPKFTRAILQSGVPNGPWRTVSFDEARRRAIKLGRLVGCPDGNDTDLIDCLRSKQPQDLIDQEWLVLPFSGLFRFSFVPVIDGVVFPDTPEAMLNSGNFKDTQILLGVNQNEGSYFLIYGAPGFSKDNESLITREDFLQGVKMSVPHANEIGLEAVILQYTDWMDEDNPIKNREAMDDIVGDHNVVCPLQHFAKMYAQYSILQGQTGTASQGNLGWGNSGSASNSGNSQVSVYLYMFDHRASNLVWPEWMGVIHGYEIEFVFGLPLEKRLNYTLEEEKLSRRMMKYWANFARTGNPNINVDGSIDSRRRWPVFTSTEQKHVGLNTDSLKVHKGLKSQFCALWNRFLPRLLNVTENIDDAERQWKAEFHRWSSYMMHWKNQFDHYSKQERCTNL
T2 sequence (Q42656 16-378): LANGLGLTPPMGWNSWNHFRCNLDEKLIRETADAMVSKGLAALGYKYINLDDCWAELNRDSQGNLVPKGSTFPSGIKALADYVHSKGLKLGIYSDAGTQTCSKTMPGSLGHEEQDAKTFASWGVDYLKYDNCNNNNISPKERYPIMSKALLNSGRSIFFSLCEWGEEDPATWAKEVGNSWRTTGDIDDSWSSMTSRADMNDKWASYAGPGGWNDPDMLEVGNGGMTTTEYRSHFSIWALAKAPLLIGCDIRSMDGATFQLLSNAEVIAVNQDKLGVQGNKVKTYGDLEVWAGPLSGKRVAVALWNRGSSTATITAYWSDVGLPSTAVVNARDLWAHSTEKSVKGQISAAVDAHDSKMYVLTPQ
T1 sequence (P53341 whole entry): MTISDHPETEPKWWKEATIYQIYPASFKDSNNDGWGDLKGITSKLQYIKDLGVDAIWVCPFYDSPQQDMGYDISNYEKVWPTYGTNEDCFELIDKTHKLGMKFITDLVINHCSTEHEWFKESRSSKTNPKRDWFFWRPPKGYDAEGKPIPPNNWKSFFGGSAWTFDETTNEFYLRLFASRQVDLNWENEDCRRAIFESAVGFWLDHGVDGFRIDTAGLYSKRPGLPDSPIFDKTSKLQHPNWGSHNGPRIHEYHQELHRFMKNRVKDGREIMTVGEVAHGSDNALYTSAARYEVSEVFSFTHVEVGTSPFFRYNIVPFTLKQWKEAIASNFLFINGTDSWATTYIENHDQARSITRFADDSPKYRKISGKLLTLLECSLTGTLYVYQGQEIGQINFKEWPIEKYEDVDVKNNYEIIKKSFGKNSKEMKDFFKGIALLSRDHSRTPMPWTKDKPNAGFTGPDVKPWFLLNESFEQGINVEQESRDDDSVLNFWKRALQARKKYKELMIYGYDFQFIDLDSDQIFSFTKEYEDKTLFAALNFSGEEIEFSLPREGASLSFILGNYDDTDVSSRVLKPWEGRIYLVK

With `CCCCN1C[C@H](O)[C@@H](O)[C@H](O)[C@H]1CO` [N-butyl-DNJ, N-butyl-1-deoxynojirimycin], the pKa in data set [1] was 7.1.
For the compound `CCCCCCCCCN1C[C@H](O)[C@@H](O)[C@H](O)[C@H]1CO` [N-nonyl-DNJ], the pKa in [1] is 6.7.
Consider `OC[C@@H]1[C@@H](O)[C@H](O)[C@@H](O)CN1CCCCCCOCCc1ccc(O)c(O)c1` [Compound 11d], for which the IC50 was above 100 µM in data set [2]; 15 µM at β-glucosidase (almonds); above 100 µM in data set [3]; above 100 µM in data set [4]; above 100 µM in [5]; above 100 µM in data set [6]. For the same compound, on BuChE (equine serum), the IC50 came out at 76 µM. Besides, in the data set with β-glucosidase (almonds), the “Mode of inhibition β-Glucosidase” value is recorded as “Competitive”. In addition, on β-glucosidase (almonds), the Ki stood at 11 µM. It took 39 ± 5 µM to inhibit growth in [7] by half (GI50).
Take `COc1ccc(CCOCCCCCCN2C[C@H](O)[C@@H](O)[C@H](O)[C@H]2CO)cc1OC` [Compound 11e]: the IC50 in data set [2] is above 100 µM; against β-glucosidase (almonds) it was 14 µM; in data set [3], above 100 µM; in [4], above 100 µM; in data set [5], above 100 µM; in data set [6], 5.8 µM. Also, the IC50 at BuChE (equine serum) was 1.9 µM. Further, the “Mode of inhibition β-Glucosidase” value with β-glucosidase (almonds) is on record as “Competitive”. The Ki on β-glucosidase (almonds) came out at 15 µM; in data set [6] (binding to enzyme-substrate complex, read-out: Kib AChE) it was 5.2 µM; in data set [6] (binding to free enzyme, read-out: Kia AChE) it was 9.3 µM; at BuChE (equine serum) (binding to enzyme-substrate complex, read-out: Kib BuChE) it was 4.5 µM; at BuChE (equine serum) (binding to free enzyme, read-out: Kia BuChE) it was 1.4 µM. Also, the “Mode of inhibition AChE” value in data set [6] (Cornish–Bowden method) is reported as “mixed inhibitor”. Also, on BuChE (equine serum) (Cornish–Bowden method), the “Mode of inhibition BuChE” value is “mixed inhibition”.
With `OC[C@@H]1[C@@H](O)[C@H](O)[C@@H](O)CN1CCCCCCOCCc1ccc(O)cc1` [Compound 11b], the IC50 was above 100 µM in [2]; 12 µM at β-glucosidase (almonds); above 100 µM in data set [3]; above 100 µM in data set [4]; above 100 µM in [5]; above 100 µM in [6]. The IC50 at BuChE (equine serum) was above 100 µM. Also, in the data set with β-glucosidase (almonds), the “Mode of inhibition β-Glucosidase” value is reported as “Competitive”. For the same compound, on β-glucosidase (almonds), the Ki was 17 µM.

In general, pKa refers to the negative logarithm of the acid dissociation constant. Broadly, the IC50 is the point on the concentration scale where inhibition reaches its midpoint. As usually defined, the GI50 is the concentration at which growth is held to half of that of the control.

The values are drawn from PMC7717699, “Tuning the activity of iminosugars: novel N-alkylated deoxynojirimycin derivatives as strong BuChE inhibitors” (Journal of Enzyme Inhibition and Medicinal Chemistry, 2020).
